Experimental data from patent US20260109727A1, “RNA CONSTRUCTS AND USES THEREOF” (BioNTech SE, priority 2022, published 2026).

Columns and labels:
[1] = test system: human primary hepatocytes; experiment: EPO secretion in human primary hepatocytes transfected with TransIT-EPO mRNA (ELISA); type: cell-based
Experimental: To measure the translational efficiency of EPO mRNA capped with compound I′-1, compound I′-6, CC114, and CC413 in vitro, human primary hepatocytes were seeded into 96-well plates at a density of 2.5×10^4 cells per well and were transfected with mRNA samples (0.1 μg) complexed with TransIT reagent (Mirus Bio, Madison, WI, USA) in a final volume of 200 μL in InVitroGRO CP Medium (Sigma-Aldrich) supplemented with Thorpedo Antibiotic Mix (Sigma-Aldrich). To quantify EPO levels, the supernatant was collected at 1, 2, 3, 4, 5 and 6 day after transfection and EPO levels were analyzed by mouse Erythropoietin DuoSet ELISA kit (R&D Systems, Minneapolis, MN, USA) according to the manufacturer's instructions.
(§1) In each in vivo experiment in order to measure the translational efficiency and to determine the functionality of EPO mRNA capped with I′-1, I′-2, I′-3, I′-5, I′-6, I′-9, I′-12, I′-13, I′-16, CC114, and CC413 in vivo, female BALB/c mice from Jackson Laboratory (Bar Harbor, ME, USA) at the age of eight to ten weeks were used for in accordance with federal policies on animal research (Ethics approval number: G19-12-074). In each case, mice (n=3/group) were injected intravenously (i.v.) with 3 μg TransIT-complexed (Mirus Bio) EPO mRNAs in a final volume of 200 μL Dulbecco's modified Eagle medium (DMEM). Mice used as controls were injected with TransIT-reagent diluted in DMEM but without RNA. To measure hematocrits and EPO levels in the individual mice that were injected with EPO mRNA capped with I′-6, I′-1, CC114, and CC413 and complexed with TransIT-reagent, 18 μL of blood was collected at the indicated times (FIG. 8B) and centrifuged in Drummond microcaps glass capillary tubes (20 μl volume, Merck, Germany) as described (19). After determination of the hematocrit, capillary tubes were snapped open, and the plasma was collected to measure EPO levels and analyzed for mouse Erythropoietin DuoSet ELISA kit (R&D Systems) according to the manufacturer's instructions. […] EPO RNA containing m1Ψ modifications translated 2-3-fold, 5-fold, and 10-fold more than U-containing mRNAs at 6-24, 48 and 72 hours after injections, respectively. (FIG. 8A). […] To address translation of I′-6-capped mRNA in human primary hepatocytes, EPO level was measured from supernatants transfected using 0.1 μg/well TransIT-formulated I′-6- or CC114-capped uRNA (FIG. 13).
To test if various uridine (U) or pseudouridine (Ψ) derivatives of cap analogues can improve translation in human primary hepatocytes, we first measured EPO secretion after application of EPO-encoding Ψ-mRNA capped with compounds described herein analog bearing pseudouridine (I′-3) or CC413 (no modification). […] In addition, all tested modification bearing caps led to increase in EPO secretion at 24 h and 48 h when compared to the unmodified I′-1 (FIG. 16).

BALB/c mice = experiment: Plasma EPO in mice IV injected with 3 μg TransIT-complexed EPO mRNA (ELISA); type: in vivo
Experimental: To confirm in vitro data, female BALB/c mice from Jackson Laboratory (Bar Harbor, ME, USA) at the age of eight to ten weeks were used for in vivo experiment in accordance with federal policies on animal research (Ethics approval number: G18-12-027). Mice (n=3/group) were injected intravenously (i.v.) with 3 μg TransIT-complexed (Mirus Bio) EPO mRNAs in a final volume of 200 μL Dulbecco's modified Eagle medium (DMEM). Mice used as controls were injected with TransIT-reagent diluted in DMEM but without RNA. Mice were injected with EPO mRNA complexed with TransIT-reagent and EPO levels in plasma were measured using ELISA (FIG. 8A). Hematocrit was measured from 18 μl of blood that was collected at the indicated times using centrifugation in Drummond microcaps glass capillary tubes (20 μl volume, Merck, Germany) as described (20) (FIG. 8B). After determination of the hematocrit, capillary tubes were snapped open, and the plasma was collected to measure EPO levels and analyzed for mouse Erythropoietin DuoSet ELISA kit (R&D Systems) according to the manufacturer's instructions. […] EPO RNA containing m1Ψ translated two-fold more than U-containing mRNA at each time points (FIG. 8A). Both compound I′-1 and compound I′-6 are suitable for translation of the encoded protein and each cap analog can be used for synthesizing of non-replicating functional mRNAs (FIG. 8A, 8B).
as §1
To this end, we generated U-containing as well as m1Ψ-modified EPO RNA capped with cap analogs which belong to either the non-ARCA (I′-13) or ARCA (I′-6) classes. Moreover, the latter ones contain 2′-OMe (I′-5) or 3′-OMe (I′-6) at the ribose of the m7G moiety. Three μg of TransIT-complexed EPO mRNA capped with nucleoside modification-containing NeoCaps I′-13, I′-5 and I′-6 cap analogs were injected into mice intravenously. After that EPO level of plasma collected from mice was measured at 6, 24 and 48 hours after administration to compare the translational activity of mRNA capped with NeoCaps with U-containing or m1Ψ-modified mRNA capped with non-modified ARCA 3′OMe I′-1.
Plasma EPO level of mice injected with 3 μg of each TransIT-complexed mRNA was determined using murine EPO-specific ELISA at 6, 24, 48 and 72 hours after intravenous administration. […]

## COC1C(OP(=O)(O)OC[C@H]2O[C@@H](c3cn(C)c(=O)[nH]c3=O)C(O)C2O)[C@@H](COP(=O)(O)OP(=O)([O-])OP(=O)(O)OC[C@H]2O[C@@H](n3c[n+](C)c4c(O)nc(N)nc43)C(O)C2OC)O[C@H]1n1cnc2c(N)ncnc21 (stereo partly shown) [I′-6, m^7G(^3′-OMe)pppA(2′-OMe)pm^1Ψ]
[1]; 0.1 μg/well TransIT-EPO mRNA, 24 hrs
  translation (EPO secretion) compared to CC413: higher translation
[1]; 0.1 μg/well TransIT-formulated uRNA, 24 h, 48 h and 144 h
  EPO secretion, I′-6- vs CC114-capped uRNA: Increased secretion of EPO
[1]; 24 h
  level of secreted EPO compared to other caps (I′-9, I′-12, I′-16): increased level
[1]; m1Ψ-mRNA context
  translation compared to CC413: lower translation at later time points but in close to comparable translation
BALB/c mice; after IV injection
  24-hour EPO values compared with 6-hour values: higher than the 6-hour values
BALB/c mice; later time points
  translation (plasma EPO) relative to CC413: 2- to 3 fold
BALB/c mice; m1Ψ-modified mRNA capped with I′-6 vs U-containing mRNA capped with I′-1, each time point
  translation (EPO level) relative to I′-1: 2-3 fold
BALB/c mice; m1Ψ-modified mRNA, 6-24 hours after administration
  translation relative to unmodified I′-1: 2-3 fold
BALB/c mice; m1Ψ-modified mRNA, 48-72 hours after administration
  translation relative to unmodified I′-1: 4-5 fold
BALB/c mice; m1Ψ-modified mRNA, 48 and 72 h after injection, respectively
  translation / plasma EPO level relative to CC413: 1.5-3 fold
BALB/c mice; m1Ψ-modified mRNA, same capping efficiency
  performance compared with cap analogs with other modification: surpasses the performance of other cap analogs
BALB/c mice; regardless of the RNA modification
  translation of ARCA analogs compared to non-ARCA caps CC114 and I′-13: significantly better
BALB/c mice; regardless of the cap initiators
  plasma EPO compared with reference samples (I′-1, CC114, CC413): outperformed each reference sample
